In patent EP3807270B1, “NOVEL HETEROARYL HETEROCYCLYL COMPOUNDS FOR THE TREATMENT OF AUTOIMMUNE DISEASE” (F. Hoffmann-La Roche AG, priority 2018, dated 2019):

biological target: T1, human TLR8 (Homo sapiens, UniProt Q9NR97); test: HEK293-Blue-hTLR-8 cells assay (SEAP reporter, R848 stimulation); type: cell-based; conditions: HEK293-Blue-hTLR8 cells, R848, 20 hrs; read-out: HEK/hTLR8 IC50
T1 construct: host or cells: HEK293 (HEK-Blue)
T1 sequence (Q9NR97 27-1041): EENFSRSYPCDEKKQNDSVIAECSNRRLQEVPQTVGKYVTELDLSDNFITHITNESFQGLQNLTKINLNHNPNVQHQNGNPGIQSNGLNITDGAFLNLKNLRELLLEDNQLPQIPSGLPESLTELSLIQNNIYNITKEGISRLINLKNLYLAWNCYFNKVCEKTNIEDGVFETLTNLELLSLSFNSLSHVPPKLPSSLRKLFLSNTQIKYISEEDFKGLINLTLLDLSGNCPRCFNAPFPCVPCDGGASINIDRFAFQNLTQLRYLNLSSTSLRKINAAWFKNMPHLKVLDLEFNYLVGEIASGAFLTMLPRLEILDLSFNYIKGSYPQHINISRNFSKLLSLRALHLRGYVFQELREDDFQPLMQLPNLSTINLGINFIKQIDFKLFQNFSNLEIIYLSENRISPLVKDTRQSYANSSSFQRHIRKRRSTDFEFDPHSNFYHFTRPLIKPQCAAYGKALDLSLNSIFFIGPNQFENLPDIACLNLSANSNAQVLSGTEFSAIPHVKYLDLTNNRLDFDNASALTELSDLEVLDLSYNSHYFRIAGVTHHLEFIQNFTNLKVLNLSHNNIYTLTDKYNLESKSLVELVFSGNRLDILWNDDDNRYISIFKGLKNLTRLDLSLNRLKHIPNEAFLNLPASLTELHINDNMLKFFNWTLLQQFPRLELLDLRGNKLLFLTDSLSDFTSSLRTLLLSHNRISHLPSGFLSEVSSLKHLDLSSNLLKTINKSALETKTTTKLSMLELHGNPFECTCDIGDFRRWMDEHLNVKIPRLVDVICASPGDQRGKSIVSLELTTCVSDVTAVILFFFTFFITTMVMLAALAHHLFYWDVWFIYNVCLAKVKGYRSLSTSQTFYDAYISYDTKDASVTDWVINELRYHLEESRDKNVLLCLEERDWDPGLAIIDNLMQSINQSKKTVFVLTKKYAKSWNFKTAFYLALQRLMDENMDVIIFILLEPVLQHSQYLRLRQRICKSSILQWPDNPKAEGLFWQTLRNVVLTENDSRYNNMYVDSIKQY
Description: A stable HEK293-Blue-hTLR-8 cell line was purchased from InvivoGen (Cat.#: hkb-htlr8, San Diego, California, USA). These cells were originally designed for studying the stimulation of human TLR8 by monitoring the activation of NF-κB. A SEAP (secreted embryonic alkaline phosphatase) reporter gene was placed under the control of the IFN-β minimal promoter fused to five NF-κB and AP-1-binding sites. The SEAP was induced by activating NF-κB and AP-1 via stimulating HEK-Blue hTLR8 cells with TLR8 ligands. Therefore, the reporter expression was declined by TLR8 antagonist under the stimulation of a ligand, such as R848, for incubation of 20 hrs. The cell culture supernatant SEAP reporter activity was determined using QUANTI-Blue™ kit (Cat.#: rep-qb1, Invivogen, San Diego, Ca, USA) at a wavelength of 640 nm, a detection medium that turns purple or blue in the presence of alkaline phosphatase.
HEK293-Blue-hTLR8 cells were incubated at a density of 250,000-450,000 cells/mL in a volume of 170 µL in a 96-well plate in Dulbecco's Modified Eagle's medium (DMEM) containing 4.5 g/L glucose, 50 U/mL penicillin, […], […], 2 mM L-glutamine, 10% (v/v) heat-inactivated fetal bovine serum with addition of 20 µL test compound in a serial dilution in the presence of final DMSO at 1% and 10 µL of 60uM R848 in above DMEM, perform incubation under 37 °C in a CO2 incubator for 20 hrs. Then 20 µL of the supernatant from each well was incubated with 180 µL Quanti-blue substrate solution at 37°C for 2 hrs and the absorbance was read at 620-655 nm using a spectrophotometer. The signaling pathway that TLR8 activation leads to downstream NF-κB activation has been widely accepted, and therefore similar reporter assay was modified for evaluating TLR8 antagonist.

| Compound | IC50 |
| --- | --- |
| C[C@@H]1CN(c2ccc(C#N)c3ncccc23)C[C@H](CN2CCCN(c3nc4c(s3)CNCC4)CC2)O1 [Example 33, 5-[(2R,6S)-2-methyl-6-[[4-(4,5,6,7-tetrahydrothiazolo[5,4-c]pyridin-2-yl)-1,4-diazepan-1-yl]methyl]morpholin-4-yl]quinoline-8-carbonitrile] | 11 nM |
| C[C@@H]1CN(c2ccc(C#N)c3ncccc23)C[C@H](CN2CCN(c3nccc4c3CCNC4)CC2)O1 [Example 62, 5-[(2R,6S)-2-methyl-6-[[4-(5,6,7,8-tetrahydro-2,6-naphthyridin-1-yl)piperazin-1-yl]methyl]morpholin-4-yl]quinoline-8-carbonitrile] | 14 nM |
| C[C@@H]1CN(c2ccc(C#N)c3nccnc23)C[C@H](CN2CCN(c3ccc4c(n3)CN[C@H]4C)CC2)O1 (single isomer, unassigned) [Example 78] | 2 nM |
| C[C@@H]1CN(c2ccc(C#N)c3ncccc23)C[C@H](CN2CCN(c3cnc4c(c3)CN[C@@H]4C)CC2)O1 (single isomer, unassigned) [Example 68] | 16 nM |
| C[C@@H]1CN(c2ccc(C#N)c3ncccc23)C[C@H](CN2CCN(c3cnc4c(c3)CNCC4)CC2)O1 [Example 21, 5-[(2R,6S)-2-methyl-6-[[4-(5,6,7,8-tetrahydro-1,6-naphthyridin-3-yl)piperazin-1-yl]methyl]morpholin-4-yl]quinoline-8-carbonitrile] | 9 nM |
| C[C@@H]1CN(c2ccc(C#N)c3nccnc23)C[C@H](CN2CCN(c3cc4c(cn3)CCNC4)CC2)O1 [Example 80, 8-[(2R,6S)-2-methyl-6-[[4-(5,6,7,8-tetrahydro-2,6-naphthyridin-3-yl)piperazin-1-yl]methyl]morpholin-4-yl]quinoxaline-5-carbonitrile] | 7 nM |
| C[C@@H]1CN(c2ccc(C#N)c3ncccc23)C[C@H](CN2CC3[C@H](C2)OCCN3c2ccc3c(n2)CCNC3)O1 (stereo in doubt) [Example 53, cis-5-[(2R,6S)-2-methyl-6-[[4-(5,6,7,8-tetrahydro-1,6-naphthyridin-2-yl)-2,3,4a,5,7,7a-hexahydropyrrolo[3,4-b][1,4]oxazin-6-yl]methyl]morpholin-4-yl]quinoline-8-carbonitrile] | 21 nM |

Now from value to molecule:

| IC50 | Compound |
| --- | --- |
| 22 nM | C[C@@H]1CN(c2ccc(C#N)c3ncccc23)C[C@H](CN2CCN(c3ccc4c(c3)CNC4)C(CO)C2)O1 (stereo partly drawn) [Example 13, 5-[(2S,6R)-2-[[3-(hydroxymethyl)-4-isoindolin-5-yl-piperazin-1-yl]methyl]-6-methyl-morpholin-4-yl]quinoline-8-carbonitrile] |
| 9 nM | C[C@@H]1CN(c2ccc(C#N)c3ncccc23)C[C@H](CN2CCN(c3cc4c(cn3)CNC4)CC2)O1 [Example 18, 5-[(2S,6R)-2-[[4-(2,3-dihydro-1H-pyrrolo[3,4-c]pyridin-6-yl)piperazin-1-yl]methyl]-6-methyl-morpholin-4-yl] quinoline-8-carbonitrile] |
| 4 nM | C[C@@H]1CN(c2ccc(C#N)c3ncccc23)C[C@H](CN2CCN(c3cc4c(cn3)CNCC4)CC2)O1 [Example 19, 5-[(2R,6S)-2-methyl-6-[[4-(5,6,7,8-tetrahydro-2,7-naphthyridin-3-yl)piperazin-1-yl]methyl]morpholin-4-yl]quinoline-8-carbonitrile] |
| 107 nM | C[C@@H]1CN(c2ccc(C#N)c3ncccc23)C[C@H](CN2CCC(Nc3ncc4c(n3)CNC4)C2)O1 (stereo partly drawn) [Example 32, 5-[(2S,6R)-2-[[3-(6,7-dihydro-5H-pyrrolo[3,4-d]pyrimidin-2-ylamino)pyrrolidin-1-yl]methyl]-6-methyl-morpholin-4-yl]quinoline-8-carbonitrile] |
| 4 nM | C[C@@H]1CN(c2ccc(C#N)c3ncccc23)C[C@H](CN2CCN(c3cnc4c(n3)CCNC4)CC2)O1 [Example 17, 5-[(2R,6S)-2-methyl-6-[[4-(5,6,7,8-tetrahydropyrido[3,4-b]pyrazin-2-yl)piperazin-1-yl]methyl]morpholin-4-yl]quinoline-8-carbonitrile] |
